Laboratory results: paper PMC2765782 (Journal of medicinal chemistry, 2009)
pEC50, pKi: −log10 of the molar value.

Assays:
[1] = biological target: T1, human RXRα (Homo sapiens, UniProt P19793); conditions: 10^−7 M, 24 h, Caco-2 cells, versus ethanol control (Figure 4)
T1 sequence (P19793 1-462): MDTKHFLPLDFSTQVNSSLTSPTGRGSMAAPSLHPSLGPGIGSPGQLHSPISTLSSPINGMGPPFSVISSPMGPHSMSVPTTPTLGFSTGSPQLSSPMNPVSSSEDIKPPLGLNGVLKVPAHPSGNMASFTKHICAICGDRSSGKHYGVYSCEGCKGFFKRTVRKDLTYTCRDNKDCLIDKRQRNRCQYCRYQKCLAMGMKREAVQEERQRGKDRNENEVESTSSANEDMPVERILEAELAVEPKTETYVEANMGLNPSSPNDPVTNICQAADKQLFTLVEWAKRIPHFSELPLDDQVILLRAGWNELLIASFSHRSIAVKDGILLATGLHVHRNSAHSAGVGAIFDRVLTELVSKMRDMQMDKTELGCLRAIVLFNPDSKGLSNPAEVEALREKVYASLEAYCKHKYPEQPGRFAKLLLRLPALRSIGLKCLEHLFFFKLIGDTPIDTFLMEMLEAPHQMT

[2] = biological target: T1, human RXRα; test: biochemical
[3] = biological target: T2, human RARα (Homo sapiens, UniProt P10276); conditions: RARE-luciferase reporter, Caco-2 cells
T2 sequence (P10276 1-462): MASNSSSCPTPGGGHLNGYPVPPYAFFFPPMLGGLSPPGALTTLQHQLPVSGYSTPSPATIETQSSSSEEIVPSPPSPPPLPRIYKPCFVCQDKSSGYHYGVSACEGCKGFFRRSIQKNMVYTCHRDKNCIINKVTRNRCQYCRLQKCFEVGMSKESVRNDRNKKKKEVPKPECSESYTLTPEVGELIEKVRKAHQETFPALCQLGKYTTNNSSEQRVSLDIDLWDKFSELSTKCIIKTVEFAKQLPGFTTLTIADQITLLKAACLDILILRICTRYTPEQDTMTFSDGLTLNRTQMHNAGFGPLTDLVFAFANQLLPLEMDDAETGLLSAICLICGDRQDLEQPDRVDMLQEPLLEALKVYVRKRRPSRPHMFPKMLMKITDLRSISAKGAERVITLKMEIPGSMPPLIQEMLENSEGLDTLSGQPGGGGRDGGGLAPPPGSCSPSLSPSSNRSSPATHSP
T2 sequence (P19793 1-462 partner): T1 sequence (P19793 1-462)

[4] = biological target: T3, RXR (Homo sapiens, UniProt P19793); test: cell-based
T3 sequence (P19793 227-462 limits assumed): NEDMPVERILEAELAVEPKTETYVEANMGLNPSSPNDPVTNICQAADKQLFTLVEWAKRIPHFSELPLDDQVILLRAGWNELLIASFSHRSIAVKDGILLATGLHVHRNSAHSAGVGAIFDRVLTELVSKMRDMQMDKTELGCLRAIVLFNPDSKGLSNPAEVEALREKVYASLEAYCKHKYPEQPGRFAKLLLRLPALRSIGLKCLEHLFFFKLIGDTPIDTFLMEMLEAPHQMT

[5] = biological target: T3, RXR; conditions: for RXR binding and homodimerization relative to 1 (luciferase output): 10^−7 M, 24 h, Caco-2 cells, compound 1 set to 1.0 (Figure 3)
[6] = system: Human T-cell lymphoma (CTCL) cells (Hut78); conditions: 24 h, versus ethanol vehicle control (Figure 5)
[7] = biological target: T1, human RXRα; conditions: based on Ki values of Table 1

pKi [2]	RAR agonist activity compared with 1 [3]	pEC50 [4]	apparent RXR binding affinity greater than 1 [7]	increase in efficacy based on EC50 values ([5]; versus 1, Table 1)	Compound	RXR-mediated transcriptional activity (RXRE-luciferase) [1]	RXR binding and homodimerization relative to 1 (luciferase output) [5]	apoptotic activity (caspases 3 and 7) [6]
					5-(1-(1,2,3,4-Tetrahydro-1,1,4,4,6-pentamethylnaphthalen-7-yl)vinyl)benzene-1,3-dioic Acid [Compound 14]	did not display significant RXR binding and activation		
7.09	slightly greater RAR agonist activity	6.70			C=C(c1ccc(C(=O)O)c([N+](=O)[O-])c1)c1cc2c(cc1C)C(C)(C)CCC2(C)C [Compound 16, 4-(1-(1,2,3,4-Tetrahydro-1,1,4,4,6-pentamethylnaphthalen-7-yl)vinyl)-2-nitrobenzoic Acid]	transcriptional activity significantly above the ethanol control levels		
6.79	significantly lower RAR binding	6.38			C=C(c1cc2c(cc1C)C(C)(C)CCC2(C)C)c1ccc(C(=O)O)cc1F [Compound 18, 3-Fluoro-4-(1-(1,2,3,4-tetrahydro-1,1,4,4,6-pentamethylnaphthalen-7-yl)vinyl)benzoic acid]	transcriptional activity significantly above the ethanol control levels	about half as well as 1	
					Cc1cc2c(cc1C(=O)c1ccc(C(=O)O)cc1F)C(C)(C)CCC2(C)C [Compound 19, 3-Fluoro-4-(1-(3,5,5,8,8-pentamethyl-5,6,7,8-tetrahydronaphthalen-2-yl)carbonyl)benzoic acid]		does not bind to RXR	almost no apoptotic activity
7.92	approximately equal to 1	7.37	75%	20%	C=C(c1ccc(C(=O)O)c(F)c1)c1cc2c(cc1C)C(C)(C)CCC2(C)C [Compound 20, 2-fluoro-4-(1-(1,2,3,4-tetrahydro-1,1,4,4,6-pentamethylnaphthalen-7-yl)vinyl)benzoic acid]	transcriptional activity significantly above the ethanol control levels		
					Cc1cc2c(cc1C(=O)c1ccc(C(=O)O)c(F)c1)C(C)(C)CCC2(C)C [Compound 21, 2-fluoro-4-(1-(3,5,5,8,8-pentamethyl-5,6,7,8-tetrahydronaphthalen-2-yl)carbonyl)benzoic acid]		a small degree of RXR binding and homodimerization relative to 1	
